# Data as given in patent publication US6353024B1, “Method for preventing and treating arthritis, osteo-traumatic pain, and neuralgias with trimebutine” (Warner-Lambert Company, priority 2000, dated 2002).
# Assays:
# [1] = test system: sodium current of DRG neurons; experiment: whole cell patch clamp, sodium currents in DRG neurons; type: cell-based, rat
# [2] = volunteers, tablets of 900 mg of trimebutine, oral
# [3] = test system: streptozocin-induced hyperalgesia; experiment: streptozocin-induced diabetic rats, tail immersion test; type: in vivo, rat; details: single dose 30 mg/kg s.c., 30 min or 60 min before tail immersion test, water 44° C.
# Protocol: FIG. 9: Effect of TMB in diabetic rats.
# Test is carried out with male Sprague Dawley rats (Iffa-Credo) weighing 160-180 grams on arrival. […] Food and water are provided ad libidum.
# Animals are intraperitoneally injected with streptozocin 75 mg/kg. Control animals are given vehicle in the same conditions. Diabetes are confirmed once a week after injection by measurement of tail vein blood glucose levels with Boehriger glycemnia test. Only animals with a final glucose level[…] are included in the study.
# The tail of the rat is immersed in a water bath at 44° C. Nociceptive reaction is defined as the reaction time (seconds) before the tail withdrawal. Results are expressed as the mean+/−SEM and analysed by a Student's t test after an analysis of variance (Anova one way)
# [4] = test system: unilateral peripheral mononeuropathy; experiment: rat mononeuropathy, vocalization threshold to paw pressure
# formalin induced pain = experiment: formalin-induced pain; details: s.c., 30 min before formalin injection in the paw
smiles,measurement,setting,value
"CCC(COC(=O)c1cc(OC)c(OC)c(OC)c1)(c1ccccc1)N(C)C.O=C(O)/C=C\C(=O)O (racemic) [trimebutine, 2-dimethylamino-2-phenylbutyl 3,4,5-trimethoxybenzoate hydrogen maleate]",unblocking rate koff,[1],29 10^−3 s^−1
same,time constant τoff of recovery from block,[1]; n=6,34 ± 4 s
same,time of maximal plasma concentrations,[2],1 h
"CC[C@](COC(=O)c1cc(OC)c(OC)c(OC)c1)(NC)c1ccccc1 [(S)-Nor-TMB, (S)-N-desmethyl trimebutine]",reaction time of tail withdrawal,[3],the same as in control (non diabetic) rats
same,antinociceptive effect in terms of amplitude and duration of action,[4]; 3 and 10 mg/kg s.c.,superior to that of morphine at 1 mg/kg i.v.
same,antinociceptive effect in the contralateral paw,[4]; s.c.,only at the highest dose (10 mg/kg)
same,dose from which increase of the vocalization pressure threshold is present,[4]; s.c.,≥ 1 mg/kg
same,antinociceptive effect in the nerve-injured paw,"[4]; s.c., three doses",significant at all the three doses tested
"CCC(COC(=O)c1cc(OC)c(OC)c(OC)c1)(NC)c1ccccc1 (stereo not drawn) [Nor-TMB, N-desmethyl trimebutine]","ED50, formalin induced pain",formalin induced pain,17 mg/kg
